Laboratory results: patent US9701792B2, “Composite compositions and methods of preparing and using same” (THE REGENTS OF THE UNIVERSITY OF COLORADO, A BODY CORPORATE, priority 2014, dated 2017)

Experiment: Volumetric shrinkage during photo-CuAAC reaction
Type: physicochemical
Details: monomer (2) and 4-pentyl-1-ol in chloroform; azide/alkyne to CuCl2/PMDETA/I819 50:50:1:1
Experimental: The volumetric shrinkage behavior during the photo-CuAAC reaction was measured using monomer (2) in FIGS. 3 and 4-pentyl-1-ol in chloroform (molar ratio of azide/alkyne to CuCl2/PMDETA/I819 as 50:50:1:1, the same as the bulk model system). […] In certain embodiments, the total shrinkage is lower in the CuAAC polymerization because the formed triazole concentration is less than the required methacrylate concentration. With appropriate fillers, the composite shrinkage may be reduced further.

molar volume change per triazole formed: 22.2 mL/mol
Compound: CC(C)(c1ccc(OCC(O)CN=[N+]=[N-])cc1)c1ccc(OCC(O)CN=[N+]=[N-])cc1 (stereo not shown) [monomer (2), bisphenol A di(3-azido-2-hydroxypropan-1-ol) ether]
